The subject of test [1] is amphetamine-induced stereotypic behaviour. Nature of the test: Amphetamine potentiation. Particulars: ip; rat; i.p.; 2 mg/kg DL-amphetamine sulphate i.v.; read-out: ED50 (dose at which amphetamine-induced behaviour is potentiated by 50%). Format: in vivo. As for the experimental part:
Substances having antidepressant effects potentiate the amphetamine-inducedstereotypic behaviour of the rat. The ED50 value which is given is the dose at which the behaviour induced after i.v. administration of 2 mg/kg DL-amphetamine sulphate is potentiated by 50%. Lit.: J. L. Howard et al., in: Antidepressants: Neurochemical, Behavioral and Clinical Perspectives, edited by S. J. Enna et al., Raven Press, New York, Pages 107-120, 1981.

Test [2] concerns immobility. In words: Behavioral Despair. Type of test: in vivo. Particulars: Rattus norvegicus, ip; rats; i.p.; glass cylinder filled with water; read-out: ED50 (dose at which immobility is reduced by 50%). The source says:
When placed in a glass cylinder filled with water, rats initially show vigorous swimming movements which alternate with phases of immobility which increase in length. Many antidepressants of a variety of chemical structures shorten the duration of this immobility. The ED50 value indicates the dose of a test substance at which the immobility during the period of the experiment is reduced by 50%.
Lit.: R. D. Porsolt et al., Europ. J. Pharmacol. 47, 379-391, 1978.

For test [3], the system named is shock-induced aggressive behaviour. In words: Tedeschi test. Type of test: in vivo. Particulars: Mus musculus, ip; mice; i.p.; shock-induced aggression; read-out: ED50 (dose at which aggressive behaviour is reduced by 50%). The source says:
In mice, anxiolytics bring about a reduction in the shock-induced aggressive behaviour. The ED50 value indicates the dose at which the aggressive behaviour is reduced by 50% within the period of the experiment.
Lit.: Tedeschi et all, J. Pharmacol. Exp. Ther. 129, 28-34, 1954.

The subject of test [4] is Passive avoidance behaviour. Nature of the test: Passive avoidance behaviour. Particulars: Rattus norvegicus, ip; rats; i.p.; electric shock, time to re-entry of darkened box; read-out: ED50 (text: minimum effective dose (MED)). Type of test: in vivo. The source says: After entering a darkened box, rats receive an electric shock and thus avoid reentering the box. Rats under the influence of anxiolytics enter the box in spite of having experience the shock. The time up to entry into the box is timed with a stopwatch. The minimum effective dose (MED) in mg/kg is reported.

The target in test [5] is T1, serotonin receptors from calf hippocampus (Bos taurus, UniProt F6Q2H9).
T1 construct: serotonin receptors from calf hippocampus; from tissue; host or cells: calf hippocampus
T1 sequence (F6Q2H9 1-422): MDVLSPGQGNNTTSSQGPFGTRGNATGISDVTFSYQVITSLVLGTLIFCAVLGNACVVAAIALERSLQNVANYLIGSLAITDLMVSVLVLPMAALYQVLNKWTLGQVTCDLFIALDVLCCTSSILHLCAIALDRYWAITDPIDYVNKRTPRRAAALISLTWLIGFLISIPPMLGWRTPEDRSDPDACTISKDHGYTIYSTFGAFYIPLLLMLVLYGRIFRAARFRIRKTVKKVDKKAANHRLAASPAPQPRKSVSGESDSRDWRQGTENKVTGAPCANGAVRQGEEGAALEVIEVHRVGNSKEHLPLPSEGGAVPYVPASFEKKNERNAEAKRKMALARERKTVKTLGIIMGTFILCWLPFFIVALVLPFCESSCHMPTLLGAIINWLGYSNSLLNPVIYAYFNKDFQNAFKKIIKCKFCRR
Nature of the test: Serotonin receptor binding (3H-serotonin displacement). Particulars: read-out: Ki (concentration at which 50% of the 3H-serotonin employed is displaced). The source says: The direct or indirect effect on the serotonergic system by, for example, anxiolytic, tranquillising, neuroleptic or antidepressant active compounds is known. Substances according to the invention interact specifically with serotonin receptors from calf hippocampus. The concentration at which 50% of the ^3 H-serotonin employed is displaced is reported (Ki values). Lit.: Peroutka, S. J. and S. H. Snyder, Molec. Pharmacol. 16, 687, 1979.

The subject of test [6] is ptosis induced by tetrabenazine. Nature of the test: Tetrabenazine antagonism. Type of test: in vivo. Particulars: Mus musculus, ip; mice; i.p.; tetrabenazine 20 mg/kg i.p.; read-out: ED50 (dose at which tetrabenazine-induced ptosis is reduced to 50%). As for the experimental part:
Antidepressants antagonise the ptosis induced by tetrabenazine in mice. The ED50 value indicates the dose at which the ptosis induced by tetrabenazine (20 mg/kg i.p.) is reduced to 50%. Lit.: J. L. Howard et al., in: Antidepressants; Neuochemical, Behavioral and Clinical Perspectives, edited by S. J. Enna et al., Raven Press, New York, pages 117-120, 1981.

Molecules are shown by their SMILES. Structures can show the parent of a compound that is named as a salt.

These results are taken from patent publication US5314884A, “2-pyrimidinyl-1-piperazine derivatives processes for their preparation and medicaments containing them” (Troponwerke GmbH & Co., priority 1983, dated 1994).

Broadly, the ED50 is the dose that gives a 50% effect, or the effect in half of the subjects. As for `O=C1c2ccccc2C(=O)N1CCCCN1CCN(c2ncc(-c3ccccc3)cn2)CC1` [Example 4, 2-(4-(4-(5-phenyl-2-pyrimidinyl)-1-piperazinyl)butyl)isoindole-1,3(2H)dion], the ED50 amounted to 3 mg/kg in test [1], 12 mg/kg in test [2] and 20 mg/kg in test [3]. The minimal effective dose in test [4] was found to be 1 mg/kg. With `O=C1c2ccccc2S(=O)(=O)N1CCCCN1CCN(c2ncccn2)CC1` [Example 7, 2-(4-(4-(2-Pyrimidinyl)-1-piperazinyl)butyl)-1,2-benzisothiazol-3-(2H)one 1,1-dioxide], the ED50 in test [3] came to 5 mg/kg. For the same compound, the minimal effective dose in test [4] stood at 0.5 mg/kg. For the compound `O=C1c2ccccc2C(=O)N1CCCCN1CCN(c2ncc(-c3c(F)cccc3Cl)cn2)CC1` [Example 8, 2-(4-(4-(5-(2-Chloro-6-fluorophenyl)-2-pyrimidinyl)-1-piperazinyl)butyl)-isoindole-1,3(2H)dione], the ED50 in test [1] is 1 mg/kg; in test [2], 33 mg/kg; in test [3], 12 mg/kg. For the compound `NCCCCN1CCN(c2ncc(-c3ccccc3)cn2)CC1` [Example 49, 1-(4-aminobutyl)-5-(5-phenyl-2-phenyl-2-pyrimidinyl)piperazine], the 50% effective dose (ED50) in test [1] came out at 3 mg/kg. `CN1C(=O)N(CCCCN2CCN(c3ncccn3)CC2)S(=O)(=O)c2ccccc21` [Example 37, 2-(4-(4-(2-Pyrimidinyl)-1-piperazinyl)butyl)-4-methyl-1,2,4-benzothiadiazin-3(4H)one 1,1-dioxide]: the IC50 in test [5] was 80 nM. Still for that read-out and setting: the value for `O=C1c2ccc([N+](=O)[O-])cc2S(=O)(=O)N1CCCCN1CCN(c2ncccn2)CC1` [Example 24, 2-(4-(4-(2-Pyrimidinyl)-1-piperazinyl)butyl)-6-nitro-1,2-benzisothiazol-3(2H)one 1,1-dioxide] was 20 nM.

For the compound `O=C1c2ccccc2C(=O)N1CCCCN1CCN(c2ncccn2)CC1` [Example 1, 2-(4-(4-(2-pyrimidinyl)-1-piperazinyl)butyl)isoindole-1,3(2H)dione], the ED50 in test [1] was 18 mg/kg. Besides, the IC50 in test [5] came to 10 nM. As for `O=C1c2ccc(Cl)cc2S(=O)(=O)N1CCCCN1CCN(c2ncccn2)CC1` [Example 11, 2-(4-(4-(2-Pyrimidinyl)-1-piperazinyl)butyl)-6-chloro-1,2-benzisothiazol-3(2H)one 1,1-dioxide], in test [4], the minimal effective dose amounted to 1 mg/kg. Besides, in test [5], the IC50 worked out at 30 nM.

As to `O=C1c2ccccc2C(=O)N1CCCN1CCN(c2ncc(-c3ccccc3)cn2)CC1` [Example 6, 2-(3-(4-(5-Phenyl-2-pyrimidinyl)-1-piperazinyl)propyl)isoindole-1,3(2H)dione], the median effective dose (ED50) in test [6] worked out at 40 mg/kg; in test [3], 15 mg/kg.

In the case of `O=C1c2ccccc2C(=O)N1CCN1CCN(c2ncc(-c3ccc(Cl)cc3)cn2)CC1` [Example 15, 1-(2-(4-(5-(4-Chlorophenyl)-2-pyrimidinyl)-1-piperazinyl)ethyl)isoindole-1,3(2H)dione], the ED50 in test [3] came out at 6 mg/kg. `CCOC(=O)N1CCN(c2ncc(-c3ccccc3)cn2)CC1` [Example 54, ethyl 4-(5-phenyl-2-pyrimidinyl)-1-piperazinecarboxylate]: the values for the 50% effective dose (ED50) in test [1], in test [2] and in test [3] were 0.4 mg/kg, 20 mg/kg and 10 mg/kg, respectively. Also, the minimal effective dose in test [4] was found to be 5 mg/kg.

On to `O=C1Nc2ccccc2S(=O)(=O)N1CCCCN1CCN(c2ncccn2)CC1` [Example 33, 2-(4-(4-(2-Pyrimidinyl)-1-piperazinyl)butyl)-1,2,4-benzothiadiazin-3(4H)one 1,1-dioxide], for which the IC50 in test [5] came out at 60 nM. As to `O=C1Nc2ccccc2S(=O)(=O)N1CCCN1CCN(c2ncccn2)CC1` [Example 32, 2-(3-(4-(2-Pyrimidinyl)-1-piperazinyl)propyl)1,2,4-benzothiadiazin-3(4H)on 1,1-dioxide], the IC50 in test [5] is 10 nM. On to `COc1ccc(-c2cnc(N3CCN(CCCCN4C(=O)c5ccccc5C4=O)CC3)nc2)cc1OC` [Example 12, 2-(4-(4-(5-(3,4-Dimethoxyphenyl)- -2-pyrimidinyl)-1-piperazinyl)butyl)-isoindole-1,3(2H)dione], for which the figures for the median effective dose (ED50) in test [2] and in test [3] were 50 mg/kg and 16 mg/kg, respectively. As for `Fc1cccc(Cl)c1-c1cnc(N2CCNCC2)nc1` [Example 61, 1-(5-(2-Fluoro-6-chlorophenyl)-2-pyrimidinyl)piperazine], the ED50 in test [1] amounted to 5 mg/kg.

For `O=C1c2cc(Cl)ccc2S(=O)(=O)N1CCCCN1CCN(c2ncccn2)CC1` [Example 10], the minimal effective dose in test [4] was 1 mg/kg. Besides, in test [5], the IC50 was 14 nM. For the compound `COc1ccc(-c2cnc(N3CCN(CCCCN4C(=O)Cc5ccccc5C4=O)CC3)nc2)cc1OC` [Example 20, 2-(4-(4-(5-(3,4-Dimethoxyphenyl)-2-pyrimidinyl)-1-piperazinyl)butyl)-isoquinoline-1,3(2H,4H)dione], the ED50 in test [1] came to 5 mg/kg. `NCCCCN1CCN(c2ncc(-c3c(F)cccc3Cl)cn2)CC1` [Example 50, 1-(4-Aminobutyl)-4-(5-(2-fluoro-6-chlorophenyl)-2-pyrimidinyl)piperazinehydrochloride]: the ED50 is 3 mg/kg in test [1] and 32 mg/kg in test [3]. Take `CN1C(=O)N(CCCN2CCN(c3ncccn3)CC2)S(=O)(=O)c2ccccc21` [Example 36, 2-(3-(4-(2-Pyrimidinyl)-1-piperazinyl)propyl)-4-methyl-1,2,4-benzothiadiazin-3(4H)one 1,1-dioxide]: in test [5], the IC50 amounted to 9 nM. On to `c1ccc2c(-c3cnc(N4CCNCC4)nc3)c[nH]c2c1` [Example 64, 1-(5-(3-Indolyl)-2-pyrimidinyl)piperazine], for which the values for the median effective dose (ED50) in test [1] and in test [6] were 2 mg/kg and 18 mg/kg, respectively. Take `c1ccc(-c2cnc(N3CCNCC3)nc2)cc1` [Example 60, 1-(5-phenyl-2-pyrimidinyl)piperazine]: the ED50 in test [1] amounted to 16 mg/kg; in test [6], 5 mg/kg. Turning to `O=C1c2ccccc2C(=O)N1CC(O)CN1CCN(c2ncc(-c3ccc(Cl)cc3)cn2)CC1` (stereo not drawn) [Example 18, 2-(3-(4-(5-(4-chlorophenyl)-2-pyrimidinyl)-1-piperazinyl)-2-hydroxypropyl)isoindole-1,3(2H)dione], the ED50 was found to be 21 mg/kg in test [6] and 9 mg/kg in test [3]. In addition, the minimal effective dose in test [4] came to 1 mg/kg. For the compound `O=C1Cc2ccccc2C(=O)N1CCCCN1CCN(c2ncccn2)CC1` [Example 19, 2-(4-(4-(2-pyrimidinyl)-1-piperazinyl)butyl)isoquinoline-1,3(2H,4H)dione], the IC50 in test [5] amounted to 30 nM.
